Assay results as given in patent US20170037008A1, “PHENYL BENZYL ETHER DERIVATIVE AND PREPARATION METHOD AND APPLICATION THEREOF” (BEIJING ZHIBO BIO-MEDICAL TECHNOLOGY CO., LTD, priority 2013, published 2017).

Tests used:
logD of labeled ligands = format: physicochemical
[1] = Biological distribution in bodies of normal mice; format: in vivo, mice (ICR); conditions: caudal vein injection
Description: Through in-vivo distribution experiments, pharmacokinetic features, especially initial bran intake and brain removal situations of ^18F or ^125I labeled compounds in the bodies of mice are studied. […] Data are expressed in radioactive percentage dosage per organ (% ID/organ) and radioactive percentage dosage per gram of organ (% ID/g).

Row | logD (logD of labeled ligands) | Blood ([1]; 2 min) | Brain ([1]; 2 min) | Blood ([1]; 10 min) | Brain ([1]; 10 min) | Thyroid ([1]; 10 min) | Blood ([1]; 30 min) | Brain ([1]; 30 min) | Thyroid ([1]; 30 min) | Blood ([1]; 60 min) | Brain ([1]; 60 min) | Thyroid ([1]; 60 min) | Thyroid ([1]; 2 min) | Structure (SMILES)
1 | [^125I]24 (logD = 4.16 ± 0.29) | 5.13 ± 0.62 % ID/g | 4.29 ± 1.06 % ID/g | 4.26 ± 0.38 % ID/g | 2.11 ± 0.38 % ID/g | 0.07 ± 0.03 % ID/organ | 3.31 ± 0.79 % ID/g | 0.73 ± 0.17 % ID/g | 0.17 ± 0.03 % ID/organ | 2.60 ± 1.33 % ID/g | 0.32 ± 0.09 % ID/g | 0.19 ± 0.05 % ID/organ |  | COc1ccc(COc2ccc([125I])cc2)cc1 [[^125I]24]
2 | [^125I]31a (logD = 3.96 ± 0.22) | 5.03 ± 0.20 % ID/g | 7.04 ± 0.89 % ID/g | 3.03 ± 0.48 % ID/g | 2.73 ± 0.25 % ID/g | 0.09 ± 0.02 % ID/organ | 2.17 ± 0.31 % ID/g | 1.05 ± 0.22 % ID/g | 0.12 ± 0.01 % ID/organ |  | 0.55 ± 0.11 % ID/g | 0.16 ± 0.03 % ID/organ | 0.12 ± 0.02 % ID/organ | FCCOc1ccc(OCc2ccc([125I])cc2)cc1 [[^125I]31a]
3 | [^125I]35a (logD = 2.50 ± 0.23) | 4.96 ± 0.35 % ID/g | 5.27 ± 0.98 % ID/g | 3.88 ± 0.79 % ID/g | 2.28 ± 0.27 % ID/g | 0.13 ± 0.01 % ID/organ | 3.89 ± 0.53 % ID/g | 0.81 ± 0.06 % ID/g | 0.19 ± 0.04 % ID/organ | 3.01 ± 1.07 % ID/g | 0.37 ± 0.06 % ID/g | 0.34 ± 0.10 % ID/organ | 0.13 ± 0.02 % ID/organ | FCCOc1ccc(COc2ccc([125I])cc2)cc1 [[^125I]35a]
